In patent publication US20250340564A1, “COMPOSITIONS USEFUL FOR MODULATING SPLICING” (SKYHAWK THERAPEUTICS, INC., priority 2021, published 2025):

Tests used:
[1] = system: ATXN3 transcripts containing exon 4 (E4E5) in SK-N-MC cells; assay: ATXN3 Quantitative Splicing Assay (qPCR, E4E5 transcripts containing exon 4); type: cell-based; details: Homo sapiens, 24 h treatment, qPCR primers/probe E4E5
Protocol: Human neuroblastoma SK-N-MC cells were plated in 384-well plates at 20,000 cells/well. Twenty-four hours after plating, cells were treated with compounds for 24 h at appropriate concentrations ranging from 30 μM to 0.6 nM (0.3% DMSO). Treated cells were lysed in 15 μL of lysis buffer, and cDNA was synthesized using the Fast Advanced Cells-to-Ct kit. Two μL of each cDNA was used in qPCR reactions to confirm the exon 4 skipped transcripts of ATXN3. A second set of primers/probe E4E5 was used to detect the transcripts containing exon 4. The third set of primers/probe E8E9 was used to detect total gene level of ATXN3. The qPCR reactions were prepared in 384-well plates in 10 μL volume, using TaqMan™ Fast Advanced Master Mix with primers and probes shown in the table below. Reactions were run in a Quant Studio 6 qPCR instrument with default settings.
The primers and probes are listed below in Table 4.
(§1) Compounds were tested as outlined in Examples 2 and 3 above and the results are shown below in Table 5.

[2] = system: total ATXN3 protein levels in SK-N-MC cells; assay: ATXN3 Total Protein Assay (MSD); type: cell-based; details: Homo sapiens, 48 hours incubation
Protocol: Human neuroblastoma SK-N-MC cells were seeded at 10,000 cells/well in 384 well plates one day prior to compound treatment. The concentrations of compounds were tested at appropriate doses ranging from 30 μM to 0.6 nM. After incubation for 48 hours, the cells were lysed with 25 μL of lysis buffer containing protease inhibitors, and total ATXN3 protein levels were assessed by Mesoscale Discovery (MSD) assay developed with one pair of anti-ATXN3 antibodies. The capture and detect antibodies were raised in mouse and rabbit respectively. Anti-rabbit MSD-ST antibody was used for secondary antibody.
ATXN3 recombinant protein was used for standards. The readouts were captured with 35 μL of MSD read buffer and multi-array 384-well high binding plates.
as §1

Structure (SMILES) | IC50 [1] | IC50 [2]
C[C@H](N)Cc1cc2nnc(Br)c(NCc3ccccc3)c2s1 [Compound 40, 6-[(2S)-2-aminopropyl]-N-benzyl-3-bromothieno[3,2-c]pyridazin-4-amine] | 10 to 40 µM | 10 to 40 µM
Cc1c(C[C@H](C)N)sc2c(NCc3ccncn3)cnnc12 [Compound 22, 6-[(2S)-2-aminopropyl]-7-methyl-N-[(pyrimidin-4-yl)methyl]thieno[3,2-c]pyridazin-4-amine] | 10 to 40 µM | 10 to 40 µM
C[C@H](N)Cc1sc2c(NCc3ccncc3)cnnc2c1Cl [Compound 8, 6-[(2S)-2-aminopropyl]-7-chloro-N-[(pyridin-4-yl)methyl]thieno[3,2-c]pyridazin-4-amine] | 10 to 40 µM | 10 to 40 µM
Cc1c(C[C@H](C)N)sc2c(NCc3ccncc3)cnnc12 [Compound 1, 6-[(2S)-2-aminopropyl]-7-methyl-N-[(pyridin-4-yl)methyl]thieno[3,2-c]pyridazin-4-amine] | 5 to 10 µM | 5 to 10 µM
Cc1c(C[C@H](C)N)sc2c(NCc3ccncc3F)cnnc12 [Compound 4, 6-[(2S)-2-aminopropyl]-N-[(3-fluoropyridin-4-yl)methyl]-7-methylthieno[3,2-c]pyridazin-4-amine] | 5 to 10 µM | 10 to 40 µM
Cc1c(C[C@@H](N)CO)sc2c(NCc3ccncc3)cnnc12 [Compound 3, (2R)-2-amino-3-(7-methyl-4-{[(pyridin-4-yl)methyl]amino}thieno[3,2-c]pyridazin-6-yl)propan-1-ol] | 5 to 10 µM | 10 to 40 µM
Cc1c(C[C@H](C)N)sc2c(NCc3ccccc3F)cnnc12 [Compound 6, 6-[(2S)-2-aminopropyl]-N-[(2-fluorophenyl)methyl]-7-methylthieno[3,2-c]pyridazin-4-amine] | 0.501 to 5 µM | 5 to 10 µM
Cc1c(C[C@H](C)N)sc2c(NCc3ccccc3)cnnc12 [Compound 37, 6-[(2S)-2-aminopropyl]-N-benzyl-7-methylthieno[3,2-c]pyridazin-4-amine] | 0.501 to 5 µM | 0.501 to 5 µM
C[C@H](N)Cc1sc2c(NCc3ccncc3)cnnc2c1Br [Compound 20, 6-[(2S)-2-aminopropyl]-7-bromo-N-[(pyridin-4-yl)methyl]thieno[3,2-c]pyridazin-4-amine] | 5 to 10 µM | 10 to 40 µM
Cc1c(C[C@@H](N)CO)sc2c(NCc3ccncc3F)cnnc12 [Compound 5, (2R)-2-amino-3-(4-{[(3-fluoropyridin-4-yl)methyl]amino}-7-methylthieno[3,2-c]pyridazin-6-yl)propan-1-ol] | 5 to 10 µM | 10 to 40 µM

Continued, values first:

IC50 [1] | IC50 [2] | Structure (SMILES)
10 to 40 µM | 10 to 40 µM | Cc1csc2c(NCc3ccccc3F)cnnc12 [Compound 36, N-[(2-fluorophenyl)methyl]-7-methylthieno[3,2-c]pyridazin-4-amine]
10 to 40 µM | 10 to 40 µM | Cc1csc2c(NCc3ccncc3F)cnnc12 [Compound 35, N-[(3-fluoropyridin-4-yl)methyl]-7-methylthieno[3,2-c]pyridazin-4-amine]
10 to 40 µM | 10 to 40 µM | Cc1c(C[C@@H](N)CCO)sc2c(NCc3ccncc3)cnnc12 [Compound 11, (3S)-3-amino-4-(7-methyl-4-{[(pyridin-4-yl)methyl]amino}thieno[3,2-c]pyridazin-6-yl)butan-1-ol]
10 to 40 µM | 10 to 40 µM | CC[C@H](N)Cc1sc2c(NCc3ccncc3)cnnc2c1C [Compound 10, 6-[(2S)-2-aminobutyl]-7-methyl-N-[(pyridin-4-yl)methyl]thieno[3,2-c]pyridazin-4-amine]
0.501 to 5 µM | 0.501 to 5 µM | Cc1c(C[C@@H](N)CO)sc2c(NCc3ccccc3)cnnc12 [Compound 39, (2R)-2-amino-3-[4-(benzylamino)-7-methylthieno[3,2-c]pyridazin-6-yl]propan-1-ol]
5 to 10 µM | 0.501 to 5 µM | Cc1c(C[C@@H](N)CCO)sc2c(NCc3ccccc3)cnnc12 [Compound 42, (3S)-3-amino-4-[4-(benzylamino)-7-methylthieno[3,2-c]pyridazin-6-yl]butan-1-ol]
10 to 40 µM | 10 to 40 µM | Clc1csc2c(NCc3ccncc3)cnnc12 [Compound 38, 7-chloro-N-[(pyridin-4-yl)methyl]thieno[3,2-c]pyridazin-4-amine]
10 to 40 µM | 10 to 40 µM | Cc1c(C[C@@H](N)CO)sc2c(NCc3ccccc3F)cnnc12 [Compound 7, (2R)-2-amino-3-(4-{[(2-fluorophenyl)methyl]amino}-7-methylthieno[3,2-c]pyridazin-6-yl)propan-1-ol]
10 to 40 µM | 10 to 40 µM | c1cc(CNc2cnnc3ccsc23)ccn1 [Compound 33, N-[(pyridin-4-yl)methyl]thieno[3,2-c]pyridazin-4-amine]
10 to 40 µM | 10 to 40 µM | Cc1c(C[C@@H](N)CO)sc2c(NCc3ccncn3)cnnc12 [Compound 23, (2R)-2-amino-3-(7-methyl-4-{[(pyrimidin-4-yl)methyl]amino}thieno[3,2-c]pyridazin-6-yl)propan-1-ol]
10 to 40 µM | 10 to 40 µM | Cc1csc2c(NCc3ccncn3)cnnc12 [Compound 34, 7-methyl-N-[(pyrimidin-4-yl)methyl]thieno[3,2-c]pyridazin-4-amine]
0.101 to 0.5 µM | 10 to 40 µM | Brc1csc2c(NCc3ccncc3)cnnc12 [Compound 41, 7-bromo-N-[(pyridin-4-yl)methyl]thieno[3,2-c]pyridazin-4-amine]
